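The compound was tested at five concentrations on cells cultured in 96-well plates, with a 48-hour exposure period. GI50 = concentration required for 50% inhibition of growth. TGI marks complete inhibition of growth.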
What was measured:
Test in all cases: growth of human tumour cells (NCI), 48 h
[1] = tested on: NCI/ADR-RES ovarian
[2] = tested on: SK-MEL-2 melanoma
[3] = tested on: HL-60(TB) leukemia
[4] = tested on: PC-3 prostate
[5] = tested on: SF-268 CNS
[6] = tested on: CAKI-1 renal
[7] = tested on: HOP-92 NSCLC
[8] = tested on: U251 CNS
[9] = tested on: SN12C renal
[10] = tested on: SNB-75 CNS
[11] = tested on: SK-MEL-5 melanoma
[12] = tested on: NCI-H460 lung
[13] = tested on: HCT-15 colon
[14] = tested on: ACHN renal
[15] = tested on: COLO 205 colon
[16] = tested on: HS 578T breast
[17] = tested on: CCRF-CEM leukemia
[18] = tested on: TK-10 renal
[19] = tested on: UACC-62 melanoma
[20] = tested on: NCI-H226 lung
[21] = tested on: HCT-116 colon
[22] = tested on: SK-MEL-28 melanoma
[23] = tested on: IGROV1 ovarian
[24] = tested on: OVCAR-5 ovarian
[25] = tested on: UACC-257 melanoma
[26] = tested on: SK-OV-3 ovarian
[27] = tested on: SW-620 colon
[28] = tested on: EKVX NSCLC
[29] = tested on: KM12 colon
[30] = tested on: SF-539 CNS
[31] = tested on: RPMI-8226 leukemia
[32] = tested on: SF-295 CNS
[33] = tested on: DU-145 prostate
[34] = tested on: UO-31 renal
[35] = tested on: A549 NSCLC
[36] = tested on: NCI-H23 lung
[37] = tested on: SR leukemia
[38] = tested on: K-562 leukemia
[39] = tested on: HCC-2998 colon
[40] = tested on: OVCAR-8 ovarian
[41] = tested on: LOX IMVI melanoma
[42] = tested on: RXF 393 renal
[43] = tested on: NCI-H522 lung
[44] = tested on: OVCAR-4 ovarian
[45] = tested on: MDA-MB-435
[46] = tested on: MOLT-4 leukemia
[47] = tested on: HOP-62 NSCLC
[48] = tested on: MDA-MB-231 breast
[49] = tested on: SNB-19 CNS
[50] = tested on: A498 renal
[51] = tested on: MCF7 breast
[52] = tested on: M14 melanoma
[53] = tested on: 786-0 renal
[54] = tested on: T-47D breast
[55] = tested on: HT29 colon
[56] = tested on: OVCAR-3 ovarian
[57] = tested on: BT-549 breast

Structure (SMILES): O=C1OCC2=C1C(c1cccc(F)c1)c1cc3c(cc1N2CCO)CCC3 (stereo not drawn)
- GI50 [1]: 43.5 nM
- TGI [1]: > 50000 nM
- GI50 [2]: 1070 nM
- TGI [2]: 39000 nM
- GI50 [3]: 77.3 nM
- TGI [3]: 376 nM
- GI50 [4]: 65.7 nM
- TGI [4]: > 50000 nM
- GI50 [5]: 122 nM
- TGI [5]: 25200 nM
- GI50 [6]: 38.1 nM
- TGI [6]: > 33300 nM
- GI50 [7]: 1620 nM
- TGI [7]: 49600 nM
- GI50 [8]: 90.4 nM
- TGI [8]: > 34000 nM
- GI50 [9]: 233 nM
- TGI [9]: > 50000 nM
- GI50 [10]: 13.6 nM
- TGI [10]: 47400 nM
- GI50 [11]: 62.6 nM
- TGI [11]: 2580 nM
- GI50 [12]: 60.9 nM
- TGI [12]: 6970 nM
- GI50 [13]: 46.4 nM
- TGI [13]: > 20200 nM
- GI50 [14]: 129 nM
- TGI [14]: > 50000 nM
- GI50 [15]: 152 nM
- GI50 [16]: 50.9 nM
- TGI [16]: > 30600 nM
- GI50 [17]: 168 nM
- TGI [17]: > 50000 nM
- GI50 [18]: 433 nM
- TGI [18]: > 50000 nM
- GI50 [19]: 22.7 nM
- TGI [19]: 33400 nM
- GI50 [20]: 1020 nM
- TGI [20]: > 47600 nM
- GI50 [21]: 81.9 nM
- TGI [21]: > 50000 nM
- GI50 [22]: 655 nM
- TGI [22]: > 50000 nM
- GI50 [23]: 81.7 nM
- TGI [23]: > 50000 nM
- GI50 [24]: 205 nM
- TGI [24]: > 50000 nM
- GI50 [25]: 12200 nM
- TGI [25]: > 50000 nM
- GI50 [26]: 844 nM
- TGI [26]: > 50000 nM
- GI50 [27]: 57.1 nM
- TGI [27]: > 50000 nM
- GI50 [28]: 162 nM
- TGI [28]: > 50000 nM
- GI50 [29]: 55.9 nM
- TGI [29]: > 50000 nM
- GI50 [30]: 49.1 nM
- TGI [30]: 434 nM
- GI50 [31]: 167 nM
- TGI [31]: 29700 nM
- GI50 [32]: 23.3 nM
- TGI [32]: 10800 nM
- GI50 [33]: 162 nM
- TGI [33]: > 24400 nM
- GI50 [34]: 107 nM
- TGI [34]: > 42500 nM
- GI50 [35]: 113 nM
- TGI [35]: > 50000 nM
- GI50 [36]: 248 nM
- TGI [36]: > 50000 nM
- GI50 [37]: 28.5 nM
- TGI [37]: 37400 nM
- GI50 [38]: 28 nM
- TGI [38]: > 50000 nM
- GI50 [39]: 148 nM
- TGI [39]: 11000 nM
- GI50 [40]: 139 nM
- TGI [40]: > 50000 nM
- GI50 [41]: 95.8 nM
- TGI [41]: 10100 nM
- GI50 [42]: 91.4 nM
- TGI [42]: > 50000 nM
- GI50 [43]: 16.9 nM
- TGI [43]: 704 nM
- GI50 [44]: 1760 nM
- TGI [44]: > 50000 nM
- GI50 [45]: 16.6 nM
- TGI [45]: 68.4 nM
- GI50 [46]: 237 nM
- TGI [46]: > 50000 nM
- GI50 [47]: 798 nM
- TGI [47]: > 50000 nM
- GI50 [48]: 218 nM
- TGI [48]: > 22200 nM
- GI50 [49]: 113 nM
- TGI [49]: > 50000 nM
- GI50 [50]: 13.8 nM
- TGI [50]: 261 nM
- GI50 [51]: 22.9 nM
- TGI [51]: > 29000 nM
- GI50 [52]: 49.1 nM
- TGI [52]: > 20900 nM
- GI50 [53]: 71.8 nM
- TGI [53]: > 50000 nM
- GI50 [54]: 2930 nM
- TGI [54]: > 50000 nM
- GI50 [55]: 92.2 nM
- TGI [55]: > 18900 nM
- GI50 [56]: 29.3 nM
- TGI [56]: 3920 nM
- GI50 [57]: 161 nM
- TGI [57]: 6950 nM
